Measured values as given in patent publication US10307413B2, “Tetrahydro- and dihydro-isoquinoline PRMT5 inhibitors and uses thereof” (Epizyme, Inc., priority 2013, dated 2019).
Read-outs that look alike come from different tables or passages of the source.

How the values were obtained:
Z-138 cell line = experiment: Z-138 Proliferation Assay (Cell Titer Glo, 5 days); type: cell-based; details: Homo sapiens, 120 h, Z-138 cells, 5 days, read-out: Proliferation EC50
Source text: RPMI/Glutamax medium, penicillin-streptomycin, heat inactivated fetal bovine serum were purchased from Life Technologies, Grand Island, N.Y., USA. V-bottom polypropylene 384-well plates were purchased from Greiner Bio-One, Monroe, N.C., USA. Cell culture 384-well white opaque plates were purchased from Perkin Elmer, Waltham, Mass., USA. Cell-Titer Glo® was purchased from Promega Corporation, Madison, Wis., USA. SpectraMax M5 plate reader was purchased from Molecular Devices LLC, Sunnyvale, Calif., USA.
A compound source plate was prepared by performing triplicate nine-point 3-fold serial dilutions in DMSO, beginning at 10 mM (final top concentration of compound in the assay was 20 μM and the DMSO was 0.2%). A 100 nL aliquot from the compound stock plate was added to its respective well in the cell plate. […] After addition of compounds, assay plates were incubated for 5 days at 37° C., 5% CO2, relative humidity >90%.
Cell viability was measured by quantitation of ATP present in the cell cultures, adding […] of Cell Titer Glo® reagent to the cell plates. Luminescence was read in the SpectraMax M5 microplate reader. The concentration of compound inhibiting cell viability by 50% was determined using a 4-parametric fit of the normalized dose response curves.

[1] = system: symmetric di-methyl arginine in Z-138 cells; experiment: Z-138 Methylation Assay (In Cell Western for symmetric di-methyl arginine and DNA content); type: cell-based; details: read-out: ICW EC50
Source text: [formula] [formula] Where top and bottom are the normally allowed to float, but may be fixed at 100 or 0 respectively in a 3-parameter fit. The Hill Coefficient normally allowed to float but may also be fixed at 1 in a 3-parameter fit. Y is the % inhibition and X is the compound concentration.
RPMI/Glutamax medium, penicillin-streptomycin, heat inactivated fetal bovine serum, and D-PBS were purchased from Life Technologies, Grand Island, N.Y., USA. Odyssey blocking buffer, 800CW goat anti-rabbit IgG (H+L) antibody, and Licor Odyssey infrared scanner were purchased from Licor Biosciences, Lincoln, Nebr., USA. Symmetric di-methyl arginine antibody was purchased from EMD Millipore, Billerica, Mass., USA. 16% Paraformaldehyde was purchased from Electron Microscopy Sciences, Hatfield, Pa., USA.
Cell Treatment, in Cell Western (ICW) for Detection of Symmetric Di-Methyl Arginine and DNA Content.
Z-138 cells were seeded in assay medium at a concentration of 50,000 cells per mL to a 384-well cell culture plate with 50 μL per well. Compound (100 nL) from 384 well source plates was added directly to 384 well cell plate. Plates were incubated at 37° C., 5% CO2 for 96 hours. […] Plates were incubated at room temperature for 30 minutes then incubated at 37° C., 5% CO2 for 5 hours. After the incubation, 40 μL per well of 8% paraformaldehyde in PBS (16% paraformaldahyde was diluted to 8% in PBS) was added to each plate and incubated for 30 minutes. […] Next 30 μL per well of Odyssey blocking buffer were added to each plate and incubated 1 hour at room temperature. Blocking buffer was removed and 20 μL per well of primary antibody was added (symmetric di-methyl arginine diluted 1:100 in Odyssey buffer with 0.1% Tween 20 (v/v)) and plates were incubated overnight (16 hours) at 4° C. Plates were washed 5 times with 100 μL per well of wash buffer. Next 20 μL per well of secondary antibody was added (1:200 800CW goat anti-rabbit IgG (H+L) antibody, 1:1000 DRAQ5 (Biostatus limited) in Odyssey buffer with 0.1% Tween 20 (v/v)) and incubated for 1 hour at room temperature. The plates were washed 5 times with 100 μL per well wash buffer then 1 time with 100 μL per well of water. Plates were allowed to dry at room temperature then imaged on the Licor Odyssey machine which measures integrated intensity at 700 nm and 800 nm wavelengths. Both 700 and 800 channels were scanned.
First, the ratio for each well was determined by:
Each plate included fourteen control wells of DMSO only treatment (minimum inhibition) as well as fourteen control wells for maximum inhibition treated with 3 μM of a reference compound (Background wells). The average of the ratio values for each control type was calculated and used to determine the percent inhibition for each test well in the plate. Reference compound was serially diluted three-fold in DMSO for a total of nine test concentrations, beginning at 3 μM. Percent inhibition was determined and IC50 curves were generated using triplicate wells per concentration of compound. Percent Inhibition=100−

Row | EC50 ([1]; Homo sapiens) | SMILES | EC50 (Z-138 cell line) | further results
1 | 101 to 1000 nM | O=C(NC[C@H](O)CN1CCc2ccccc2C1)c1cc(OC2CCN(CC(F)(F)F)CC2)ncn1 [Compound 285] | 1000 to 10000 nM | 
2 | < 100 nM | O=C(NC[C@H](O)CN1CCc2ccccc2C1)c1cncc(NC2CCOCC2)c1 [Compound 298] | 101 to 1000 nM | 
3 | < 100 nM | NC(=O)CN1CCN(Cc2cccc(C(=O)NCC(O)CN3CCc4ccccc4C3)c2)CC1 (stereo not drawn) [Compound 172] | 1000 to 10000 nM | 
4 | 101 to 1000 nM | O=C(NCC(O)CN1CCc2ccccc2C1)c1ccc(NC2CCNCC2)cc1 (stereo not drawn) [Compound 138] | 10000 to 50000 nM | 
5 | < 100 nM | O=C(NCC(O)CN1CCc2ccccc2C1)c1cccc(C2CCOCC2)c1 (stereo not drawn) [Compound 99] | 1000 to 10000 nM | 
6 | < 100 nM | O=C(NC[C@H](O)CN1CCc2ccccc2C1)c1ccc(OC2CCN(CCO)CC2)cc1 [Compound 321] | 101 to 1000 nM | 
7 | 101 to 1000 nM | NC(=O)CNCCOc1cccc(C(=O)NCC(O)CN2CCc3ccccc3C2)c1 (stereo not drawn) [Compound 222] | > 20000 nM | 
8 | 101 to 1000 nM | O=C(NCC(O)CN1CCc2ccccc2C1)c1ncc[nH]1 (stereo not drawn) [Compound 170] | > 20000 nM | 
9 | 101 to 1000 nM | CN1CCC(Nc2cc(C(=O)NC[C@H](O)CN3CCc4ccccc4C3)ncn2)C1 (stereo partly drawn) [Compound 181] | 1000 to 10000 nM | 
10 | 101 to 1000 nM | COCCN1CCN(Cc2cccc(C(=O)NCC(O)CN3CCc4ccccc4C3)c2)CC1 (stereo not drawn) [Compound 114] | 10000 to 50000 nM | 
11 | < 100 nM | O=C(NC[C@H](O)CN1CCc2ccccc2C1)c1nc2cc(Br)ccc2[nH]1 [Compound 319] | 1000 to 10000 nM | 
12 | < 100 nM | O=C(NC[C@H](O)CN1CCc2ccccc2C1)c1ccnc(OC2CCN(CC(F)(F)F)CC2)c1 [Compound 203] | 101 to 1000 nM | 
13 |  | O=C(NC[C@H](O)CN1CCc2ccccc2C1)c1cccc(NC2CCOCC2)c1 [Compound 44, (S)—N-(3-(3,4-dihydroisoquinolin-2(1H)-yl)-2-hydroxypropyl)-3-((tetrahydro-2H-pyran-4-yl)amino)benzamide] | 101 to 1000 nM | 
14 | 101 to 1000 nM | O=C(NCC(O)CN1CCc2ccccc2C1)c1ccnc(NC2CCOCC2)n1 (stereo not drawn) [Compound 62] | 10000 to 50000 nM | 
15 | < 100 nM | COCCN1CCC(Oc2ccc(C(=O)NC[C@H](O)CN3CCc4ccccc4C3)cc2)CC1 [Compound 329] | 101 to 1000 nM | 
16 | < 100 nM | O=C(NC[C@H](O)CN1CCc2ccccc2C1)c1ccc(OC2CCN(Cc3ccccc3)CC2)cc1 [Compound 330] | < 100 nM | 
17 | < 100 nM | O=C(NCC(O)CN1CCc2ccccc2C1)c1cccc(NC2CCOCC2)n1 (stereo not drawn) [Compound 73] | 1000 to 10000 nM | 
18 | < 100 nM | COc1ccc2oc(C(=O)NC[C@H](O)CN3CCc4ccccc4C3)cc2c1 [Compound 250] | 1000 to 10000 nM | 
19 | < 100 nM | CN(C)C(=O)CN1CCN(Cc2cccc(C(=O)NCC(O)CN3CCc4ccccc4C3)c2)CC1 (stereo not drawn) [Compound 174] | 1000 to 10000 nM | 
20 | 101 to 1000 nM | CN1CCN(Cc2cccc(C(=O)NCC(O)CN3CCc4ccccc4C3)c2)CC1 (stereo not drawn) [Compound 30, N-(3-(3,4-dihydroisoquinolin-2(1H)-yl)-2-hydroxypropyl)-3-((4-methylpiperazin-1-yl)methyl)benzamide] | 1000 to 10000 nM | 
21 | < 100 nM | O=C(NC[C@H](O)CN1CCc2ccccc2C1)c1cccc(OC2CCOCC2)c1 [Compound 82] | 101 to 1000 nM | 
22 | < 100 nM | CS(=O)(=O)N1CCC(Nc2cc(C(=O)NC[C@H](O)CN3CCc4ccccc4C3)ncn2)CC1 [Compound 297] | < 100 nM | 

Row | EC50 ([1]; Homo sapiens) | SMILES | EC50 (Z-138 cell line) | further results
23 | < 100 nM | Cn1nc(NC2CCOCC2)cc1C(=O)NCC(O)CN1CCc2ccccc2C1 (stereo not drawn) [Compound 311] | < 100 nM | 
24 |  | O=C(NC[C@H](O)CN1CCc2ccccc2C1)c1ccnc(Nc2ccncc2)c1 [Compound 412] |  | EC50 (Z-138 cell line; Cell Titer Glo): 101 to 1000 nM; EC50 ([1]; Homo sapiens, In Cell Western methylation): < 100 nM
25 | < 100 nM | O=C(NCC(O)CN1CCc2ccccc2C1)c1cccc(CN2CCN(CC(F)(F)F)CC2)c1 (stereo not drawn) [Compound 92] | 1000 to 10000 nM | 
26 | 101 to 1000 nM | O=C(NC[C@H](O)CN1CCc2ccccc2C1)c1cc2ccccc2o1 [Compound 271] | 1000 to 10000 nM | 
27 | 101 to 1000 nM | CN1CCC(c2cccc(C(=O)NCC(O)CN3CCc4ccccc4C3)c2)C1 (stereo not drawn) [Compound 38, N-(3-(3,4-dihydroisoquinolin-2(1H)-yl)-2-hydroxypropyl)-3-(1-methylpyrrolidin-3-yl)benzamide] | 10000 to 50000 nM | 
28 | < 100 nM | CS(=O)(=O)N1CCC(Oc2cccc(C(=O)NCC(O)CN3CCc4ccccc4C3)c2)C1 (stereo not drawn) [Compound 162] | 1000 to 10000 nM | 
29 | < 100 nM | CN(CCN(C)S(C)(=O)=O)c1cc(C(=O)NC[C@H](O)CN2CCc3ccccc3C2)ccn1 [Compound 263] | 1000 to 10000 nM | 
30 | < 100 nM | Cn1nccc1Nc1cc(C(=O)NC[C@H](O)CN2CCc3ccccc3C2)ccn1 [Compound 325] | 101 to 1000 nM | 
31 | < 100 nM | O=C(NC[C@H](O)CN1CCc2ccccc2C1)c1ccnc(NC2CCOC2)c1 (stereo partly drawn) [Compound 306] | < 100 nM | 
32 | < 100 nM | CC(=O)N1CC(Nc2cc(C(=O)NC[C@H](O)CN3CCc4ccccc4C3)ncn2)C1 [Compound 284, (S)-6-((1-acetylazetidin-3-yl)amino)-N-(3-(3,4-dihydroisoquinolin-2(1H)-yl)-2-hydroxypropyl)pyrimidine-4-carboxamide] | < 100 nM | 
33 | < 100 nM | CC(C)N1CCC(Nc2cccc(C(=O)NCC(O)CN3CCc4ccccc4C3)c2)CC1 (stereo not drawn) [Compound 103] | 10000 to 50000 nM | 
34 |  | CN1CCC(Oc2cccc(C(=O)NCC(O)CN3CCc4ccccc4C3)c2)C1 (stereo not drawn) [Compound 134] | 10000 to 50000 nM | 
35 |  | O=C(NC[C@@H](O)CN1CCc2ccccc2C1)c1cc(NC2COC2)ncn1 [Compound 367] |  | EC50 [1]: 101 to 1000 nM
36 | 101 to 1000 nM | O=C(NC[C@@H](O)CN1CCc2ccccc2C1)c1cccc(OC2CCOCC2)c1 [Compound 83] |  | 
37 | 101 to 1000 nM | O=C(NCC(O)CN1CCc2ccccc2C1)c1cccc(NCCN2CCOCC2)c1 (stereo not drawn) [Compound 61] |  | 
38 | 101 to 1000 nM | O=C(NCC(O)CN1CCc2ccccc2C1)c1cccc(NC2CCOC2)c1 (stereo not drawn) [Compound 45, N-(3-(3,4-dihydroisoquinolin-2(1H)-yl)-2-hydroxypropyl)-3-((tetrahydrofuran-3-yl)amino)benzamide] |  | 
39 | 1000 to 10000 nM | COCCNc1cccc(C(=O)NCC(O)CN2CCc3ccccc3C2)c1 (stereo not drawn) [Compound 72] |  | 
40 | 101 to 1000 nM | O=C(NCC(O)CN1CCc2ccccc2C1)c1cncc(NC2CCOCC2)n1 (stereo not drawn) [Compound 75] |  | 
41 |  | O=C(O)CCCN1CCN(Cc2cccc(C(=O)NCC(O)CN3CCc4ccccc4C3)c2)CC1 (stereo not drawn) [Compound 158] | > 20000 nM | 
42 | 101 to 1000 nM | O=C(NCC(O)CN1CCc2ccccc2C1)c1nccc(NC2CCOCC2)n1 (stereo not drawn) [Compound 76] |  | 
43 | 1000 to 10000 nM | CC1=NN(c2ccc(C(=O)NCC(O)CN3CCc4ccccc4C3)cc2)C(=O)C1 (stereo not drawn) [Compound 86] |  | 

Row | SMILES | EC50 ([1]; Homo sapiens) | EC50 (Z-138 cell line) | further results
44 | CN1CCC(N(C)c2cccc(C(=O)NCC(O)CN3CCc4ccccc4C3)c2)CC1 (stereo not drawn) [Compound 131] | 101 to 1000 nM | 1000 to 10000 nM | 
45 | O=C(NC[C@@H](O)CN1CCc2ccccc2C1)Oc1ccccc1 [Compound 11, (R)-phenyl (3-(3,4-dihydroisoquinolin-2(1H)-yl)-2-hydroxypropyl)carbamate] | 1000 to 10000 nM |  | 
